Test system: MCF-7 breast cancer cells
Assay: Microarray gene expression analysis (Agilent whole human genome 4 x 44K; compound vs DMSO, LIMMA log2 fold change)
Type: cell-based
Conditions: cell cycle genes

Oc1cccc(-c2nc(N3CCOCC3)c3oc4ncccc4c3n2)c1 [PI-103]
MLF1 log2FC (Gene 4291): 0.58
MLH1 log2FC (Gene 4292): 0.34
MAP3K11 log2FC (Gene 4296): -0.58
MNAT1 log2FC (Gene 4331): 0.59
MNT log2FC (Gene 4335): 1.54
MOS log2FC (Gene 4342): -0.08
MRE11A log2FC (Gene 4361): 0.27
MSH2 log2FC (Gene 4436): 0.79
MSH3 log2FC (Gene 4437): 0.54
MSH4 log2FC (Gene 4438): -0.0458
MSX1 log2FC (Gene 4487): -0.24
MSX2 log2FC (Gene 4488): 0.05
MUC1 log2FC (Gene 4582): -0.28
TRIM37 log2FC (Gene 4591): 0.67
MX2 log2FC (Gene 4600): -0.08
MYB log2FC (Gene 4602): 0.51
MYBL2 log2FC (Gene 4605): -0.39
MYC log2FC (Gene 4609): 0.42
GADD45B log2FC (Gene 4616): 0.86
MYH9 log2FC (Gene 4627): -0.23
MYH10 log2FC (Gene 4628): -0.0425
PPP1R12A log2FC (Gene 4659): 0.42
PPP1R12B log2FC (Gene 4660): 0.33
NUBP1 log2FC (Gene 4682): -0.22
NBN log2FC (Gene 4683): 0.62
NEDD9 log2FC (Gene 4739): 0.0368
NEK1 log2FC (Gene 4750): 0.57
NEK2 log2FC (Gene 4751): 1.00
NEUROD1 log2FC (Gene 4760): 0.04
NGFR log2FC (Gene 4804): -0.07
NOTCH2 log2FC (Gene 4853): 0.27
NPAT log2FC (Gene 4863): 0.48
NPM1 log2FC (Gene 4869): 0.28
NUP88 log2FC (Gene 4927): 0.08
ODF2 log2FC (Gene 4957): -0.13
OSM log2FC (Gene 5008): -0.00804
OVOL1 log2FC (Gene 5017): -0.06
PAFAH1B1 log2FC (Gene 5048): 0.72
PAK1 log2FC (Gene 5058): 0.07
PAK3 log2FC (Gene 5063): 0.09
PCM1 log2FC (Gene 5108): 0.63
PCNT log2FC (Gene 5116): 0.45
PDGFB log2FC (Gene 5155): -0.24
PDGFRB log2FC (Gene 5159): 0.0243
PGGT1B log2FC (Gene 5229): -0.28
ABCB1 log2FC (Gene 5243): -0.02
PIK3C3 log2FC (Gene 5289): 1.00
PIM1 log2FC (Gene 5292): 1.29
PIN1 log2FC (Gene 5300): -0.0472
PKD1 log2FC (Gene 5310): 0.37
PKD2 log2FC (Gene 5311): 0.13
PKHD1 log2FC (Gene 5314): -0.09
PLAGL1 log2FC (Gene 5325): 0.32
PML log2FC (Gene 5371): -0.41
PMS1 log2FC (Gene 5378): 0.55
PMS2 log2FC (Gene 5395): 0.12
POLD1 log2FC (Gene 5424): 0.33
POLE log2FC (Gene 5426): -0.10
PPAT log2FC (Gene 5471): 0.07
PPM1A log2FC (Gene 5494): 0.27
PPP1CB log2FC (Gene 5500): 0.81
PPP1CC log2FC (Gene 5501): 0.33
PPP2R1A log2FC (Gene 5518): 0.06
PPP2R2A log2FC (Gene 5520): -0.06
PPP2R4 log2FC (Gene 5524): -0.32
PPP2R5C log2FC (Gene 5527): 0.78
PPP3CA log2FC (Gene 5530): 0.45
PPP5C log2FC (Gene 5536): -0.24
PPP6C log2FC (Gene 5537): -0.35
PRCC log2FC (Gene 5546): -0.66
PRIM1 log2FC (Gene 5557): 0.46
PRKAA1 log2FC (Gene 5562): 0.30
PRKAA2 log2FC (Gene 5563): 0.07
PRKAB1 log2FC (Gene 5564): 0.25
PRKAB2 log2FC (Gene 5565): 0.81
PRKACA log2FC (Gene 5566): -0.35
PKIA log2FC (Gene 5569): -0.29
PRKAG1 log2FC (Gene 5571): 0.09
PRKAR1A log2FC (Gene 5573): 0.45
PRKAR2B log2FC (Gene 5577): 0.43
PRKCA log2FC (Gene 5578): -0.16
PRKCD log2FC (Gene 5580): 0.12
PRKCE log2FC (Gene 5581): -0.00329
PKN2 log2FC (Gene 5586): 0.51
MAPK1 log2FC (Gene 5594): 0.0165
MAPK3 log2FC (Gene 5595): -0.12
MAPK13 log2FC (Gene 5603): -0.17
MAP2K1 log2FC (Gene 5604): -0.23
MAP2K6 log2FC (Gene 5608): 0.36
PROX1 log2FC (Gene 5629): -0.08
KLK10 log2FC (Gene 5655): -0.42
PSMA1 log2FC (Gene 5682): -0.03
PSMA4 log2FC (Gene 5685): 0.47
PSMA6 log2FC (Gene 5687): 0.07
PSMB1 log2FC (Gene 5689): 0.00908
PSMB2 log2FC (Gene 5690): -0.43
PSMB3 log2FC (Gene 5691): 0.0534
PSMB5 log2FC (Gene 5693): -0.22
PSMB6 log2FC (Gene 5694): -0.08
PSMB8 log2FC (Gene 5696): -0.00568
PSMC1 log2FC (Gene 5700): -0.00867
PSMC2 log2FC (Gene 5701): 0.28
PSMC5 log2FC (Gene 5705): -0.31
PSMC6 log2FC (Gene 5706): 0.52
PSMD2 log2FC (Gene 5708): 0.00374
PSMD3 log2FC (Gene 5709): -0.0745
PSMD4 log2FC (Gene 5710): -0.0364
PSMD5 log2FC (Gene 5711): 0.19
PSMD7 log2FC (Gene 5713): 0.00364
PSMD9 log2FC (Gene 5715): -0.40
PSMD12 log2FC (Gene 5718): -0.77
PSMD13 log2FC (Gene 5719): -0.17
PSME2 log2FC (Gene 5721): 0.04
PTEN log2FC (Gene 5728): 0.96
PTGS2 log2FC (Gene 5743): -0.0533
PTPN3 log2FC (Gene 5774): -0.31
PTPN6 log2FC (Gene 5777): 0.26
PTPRC log2FC (Gene 5788): -0.0261
PTPRK log2FC (Gene 5796): 0.72
RAD1 log2FC (Gene 5810): -0.29
RAD9A log2FC (Gene 5883): 0.68
RAD17 log2FC (Gene 5884): 1.15
RAD21 log2FC (Gene 5885): 0.83
RAD51 log2FC (Gene 5888): -0.29
RAD52 log2FC (Gene 5893): 0.14
RAN log2FC (Gene 5901): -0.14
RANBP1 log2FC (Gene 5902): -0.10
RANBP2 log2FC (Gene 5903): 0.42
RARA log2FC (Gene 5914): -0.31
RASA1 log2FC (Gene 5921): 0.47
RB1 log2FC (Gene 5925): 0.67
RBL2 log2FC (Gene 5934): 0.41
RFC1 log2FC (Gene 5981): 1.04
RFC2 log2FC (Gene 5982): -0.10
RFC5 log2FC (Gene 5985): 0.15
RGS2 log2FC (Gene 5997): -2.43
RHEB log2FC (Gene 6009): 0.40
RNF2 log2FC (Gene 6045): -0.11
RNF4 log2FC (Gene 6047): -0.48
RPA3 log2FC (Gene 6119): 0.23
RPS6KA2 log2FC (Gene 6196): 0.19
RPS6KA3 log2FC (Gene 6197): 0.27
RPS15A log2FC (Gene 6210): 0.48
RPS27 log2FC (Gene 6232): 0.35
RPS27A log2FC (Gene 6233): 0.45
RRM1 log2FC (Gene 6240): 0.36
RRM2 log2FC (Gene 6241): -0.81
SETMAR log2FC (Gene 6419): -0.16
SIAH2 log2FC (Gene 6478): -0.48
SKP2 log2FC (Gene 6502): -1.28
SMARCA4 log2FC (Gene 6597): -0.39
SOX2 log2FC (Gene 6657): 0.23
SOX9 log2FC (Gene 6662): -2.01
SPAST log2FC (Gene 6683): 0.37
SPTBN1 log2FC (Gene 6711): 0.11
SRPK2 log2FC (Gene 6733): 0.78
TRIM21 log2FC (Gene 6737): 0.02
